# Laboratory results published in the Kinase Knowledgebase extract (Sharma et al. 2016).
# Target: EGFR (human) (UniProt P00533)
# Sequence (P00533 whole entry, looked up): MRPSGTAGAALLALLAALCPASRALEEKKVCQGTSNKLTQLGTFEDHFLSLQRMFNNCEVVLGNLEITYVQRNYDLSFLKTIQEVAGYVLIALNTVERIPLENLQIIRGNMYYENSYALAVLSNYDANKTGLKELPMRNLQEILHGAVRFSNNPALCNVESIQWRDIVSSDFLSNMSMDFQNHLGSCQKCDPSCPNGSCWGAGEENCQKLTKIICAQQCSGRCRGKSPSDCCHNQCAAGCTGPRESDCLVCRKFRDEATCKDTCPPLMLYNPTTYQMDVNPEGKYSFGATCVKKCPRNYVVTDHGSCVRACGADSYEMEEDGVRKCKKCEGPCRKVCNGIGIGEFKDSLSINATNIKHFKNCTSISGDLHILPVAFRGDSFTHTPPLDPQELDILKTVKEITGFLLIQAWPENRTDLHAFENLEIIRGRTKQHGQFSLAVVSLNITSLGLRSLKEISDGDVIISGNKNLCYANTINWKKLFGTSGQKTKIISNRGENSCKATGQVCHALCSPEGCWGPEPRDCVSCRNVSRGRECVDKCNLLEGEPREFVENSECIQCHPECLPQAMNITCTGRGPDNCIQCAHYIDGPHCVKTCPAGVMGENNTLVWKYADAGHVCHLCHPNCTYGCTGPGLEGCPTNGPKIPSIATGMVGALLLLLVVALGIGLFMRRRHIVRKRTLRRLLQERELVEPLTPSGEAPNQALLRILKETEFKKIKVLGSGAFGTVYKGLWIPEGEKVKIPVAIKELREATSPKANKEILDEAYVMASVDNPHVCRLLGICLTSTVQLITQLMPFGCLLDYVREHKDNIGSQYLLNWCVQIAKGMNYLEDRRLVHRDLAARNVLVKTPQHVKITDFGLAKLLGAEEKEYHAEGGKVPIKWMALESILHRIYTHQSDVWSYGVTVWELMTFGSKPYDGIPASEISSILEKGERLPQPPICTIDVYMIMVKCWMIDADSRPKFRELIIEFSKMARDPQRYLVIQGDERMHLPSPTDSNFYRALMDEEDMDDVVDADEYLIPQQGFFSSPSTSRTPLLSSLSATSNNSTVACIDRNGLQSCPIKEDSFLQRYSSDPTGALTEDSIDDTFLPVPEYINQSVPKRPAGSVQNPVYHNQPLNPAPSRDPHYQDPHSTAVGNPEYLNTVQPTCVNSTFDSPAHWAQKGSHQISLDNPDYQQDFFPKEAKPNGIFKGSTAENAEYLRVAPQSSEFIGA
row,Compound,IC50 [nM]
1,COc1ccc(Nc2nccc(-c3sc(C(C)C)nc3-c3cccc(NS(=O)(=O)Cc4ccccc4)c3)n2)cc1N1CCN(CCS(C)(=O)=O)CC1,< 100
2,CN1CCC(c2nc(-c3ccc(F)c(NS(=O)(=O)c4c(F)cccc4F)c3)c(-c3ccnc(Nc4ccc(N5CCOCC5)nc4)n3)s2)CC1,100 to 1000
3,COc1cc(N2CCN(CCS(C)(=O)=O)CC2)c(C)cc1Nc1nccc(-c2sc(C(C)C)nc2-c2cccc(NS(=O)(=O)c3c(F)cccc3F)c2F)n1,< 100
4,CC(C)c1nc(-c2ccc(F)c(NS(=O)(=O)c3c(F)cccc3F)c2)c(-c2ccnc(Nc3ccc(N4CCN(CCS(C)(=O)=O)CC4)c(F)c3)n2)s1,100 to 1000
5,COc1cc(N2CCN(CCS(C)(=O)=O)CC2)c(C)cc1Nc1nccc(-c2sc(C(C)C)nc2-c2cccc(NS(=O)(=O)c3ccco3)c2)n1,< 100
6,CC(=O)N1CCN(c2ccc(Nc3nccc(-c4sc(C(C)C)nc4-c4cccc(NS(=O)(=O)c5cccc(F)c5)c4)n3)cn2)CC1,100 to 1000
7,CC(C)c1nc(-c2cccc(NS(=O)(=O)c3ccccc3)c2)c(-c2ccnc(Nc3ccc(CC4CCN(CCS(C)(=O)=O)CC4)c(F)c3)n2)s1,100 to 1000
8,CC(C)c1nc(-c2ccc(F)c(NS(=O)(=O)c3ccccc3F)c2)c(-c2ccnc(Nc3ccc(N4CCN(CCS(C)(=O)=O)CC4)c(F)c3)n2)s1,100 to 1000
9,CCNc1nc(-c2cccc(NS(=O)(=O)c3c(F)cccc3F)c2)c(-c2ccnc(Nc3ccc(N4CCOCC4)nc3)n2)s1,100 to 1000
10,CC(C)c1nc(-c2cccc(NS(=O)(=O)c3c(F)cccc3F)c2)c(-c2ccnc(Nc3ccc(N4CCN5CCOC[C@H]5C4)nc3)n2)s1,100 to 1000
11,CC(=O)N1CCN(c2ccc(Nc3nccc(-c4sc(C(C)C)nc4-c4cccc(NS(=O)(=O)c5cc(F)ccc5F)c4)n3)cn2)CC1,100 to 1000
12,COc1ccc(S(C)(=O)=O)cc1Nc1nccc(-c2sc(C(C)C)nc2-c2cccc(NS(=O)(=O)c3c(F)cccc3F)n2)n1,100 to 1000
13,CC(C)c1nc(-c2ccc(F)c(NS(=O)(=O)c3c(F)cccc3F)c2)c(-c2ccnc(Nc3ccnc(N4CCOCC4)c3)n2)s1,100 to 1000
14,CCOc1ccc(Nc2nccc(-c3sc(C(C)C)nc3-c3ccc(F)c(NS(=O)(=O)c4c(F)cccc4F)c3)n2)cc1N1CCN(CCF)CC1,< 100
15,COc1cc(CCN2CCCCC2)c(F)cc1Nc1nccc(-c2sc(C(C)C)nc2-c2cccc(NS(=O)(=O)c3c(F)cccc3F)c2)n1,100 to 1000
16,Cc1cc(N2CCC(N3CCCCC3)CC2)ccc1Nc1nccc(-c2sc(C(C)C)nc2-c2cccc(NS(=O)(=O)c3c(F)cccc3F)c2)n1,< 100
17,CC(C)c1nc(-c2ccc(F)c(NS(=O)(=O)c3c(F)cccc3F)c2)c(-c2ccnc(Nc3cccc(CCS(N)(=O)=O)c3)n2)s1,100 to 1000
18,O=S1(=O)Cc2ccc(Nc3nccc(-c4sc(N5CCOCC5)nc4-c4cccc(NS(=O)(=O)c5c(F)cccc5F)c4F)n3)cc2C1,100 to 1000
19,COc1ccc(S(C)(=O)=O)cc1Nc1nccc(-c2sc(C(C)C)nc2-c2cccc(NS(=O)(=O)c3c(F)cccc3F)c2F)n1,100 to 1000
20,CC(C)c1nc(-c2cccc(NS(=O)(=O)c3c(F)cccc3F)c2)c(-c2ccnc(Nc3ccc(N4CCCN(CCS(C)(=O)=O)CC4)nc3)n2)s1,100 to 1000
21,CN(C)c1nc(-c2ccc(F)c(NS(=O)(=O)c3c(F)cccc3F)c2)c(-c2ccnc(Nc3ccc(N4CCOCC4)nc3)n2)s1,100 to 1000
22,O=S(=O)(Nc1cc(-c2nc(N3CCCC3)sc2-c2ccnc(Nc3ccc(N4CCOCC4)nc3)n2)ccc1F)c1c(F)cccc1F,100 to 1000
